We go through 30 compounds from PMC12040169 (PLOS Biology, 2025).

≈ marks a conversion by molar mass, not a printed value.

One data set relates to HeLa. Particulars: bulk resorufin, single well, 28.5 h, 10 µM, Bulk resorufin fluorescence.
A short description of data set [1]: in vitro. The note with it: human, hela cells, % viability.
Data set [2] concerns T1, CTL2-GFP (C. trachomatis L2/434/Bu, GFP-expressing).
T1 construct: L2/434/Bu, GFP-expressing
As to the kind of experiment: microbe, parasite or virus in culture. Set-up: C. trachomatis growth in HeLa, dose-response, mean of bulk GFP fluorescence and imaged total inclusion area. Particulars: Chlamydia trachomatis, HeLa, 28.5 h; mean of GFP and inclusion area. From the text: (§1) We screened a library of 36,785 small molecules displaying drug-like properties and covering a wide chemical space (Fig 1A and S2A Data). In this process, we also complemented the assay described above with an imaging-based readout (Fig 1B). After measurements of bulk GFP and resorufin fluorescence, cells were fixed, stained with the DNA dye Hoechst, and imaged at a high-content imaging platform to detect chlamydial inclusions (GFP) and host cell nuclei (Hoechst). The total area and number of inclusions in individual wells and the number of nuclei then served as additional proxies for chlamydial growth and host cell viability. […] MICs were calculated as described above.

The test system is the same in data set [3]. As to the kind of experiment: microbe, parasite or virus in culture. Set-up: species or system HeLa; C. trachomatis growth in HeLa, dose-response, mean of bulk GFP fluorescence and imaged total inclusion area. Particulars: Chlamydia trachomatis, 28.5 h; mean of GFP and inclusion area.
Text: as §1

A short description of data set [4]: in vitro. Set-up: Viability of infected HeLa host cells, resazurin conversion, bulk resorufin fluorescence relative to DMSO. The note with it: human, hela cells; bulk resorufin, mean of 3.

Broadly, the viability is a read-out of living cells in per cent, often relative to untreated cells. `C[C@H]1CN2CCCC2CN1Cc1ccccc1F` (stereo partly shown) [CBK285450]: in the data set on HeLa, the % viability amounted to 103%. Besides, the viability at 28.5 h, 10 µM in the data set “in vitro [1]” is 96.5%.

Regarding `C[C@H]1CN2CCCC2CN1Cc1c(F)cccc1F` (stereo partly shown) [CBK285451], the % viability with HeLa is 102%. Besides, the viability at 28.5 h, 10 µM in the data set “in vitro [1]” was found to be 89.8%.

Turning to `C[C@@H]1CN2CCCC2CN1Cc1ccc(F)cc1F` (stereo partly shown) [CBK285455], the % viability with HeLa was determined as 97.8%. For the same compound, in the data set “in vitro [1]”, the viability at 28.5 h, 10 µM was determined as 106%.

Take `CSCC[C@@H]1CN2CCC[C@H]2CN1Cc1cn(C)nc1C` [CBK285462]: the % viability in the data set on HeLa worked out at 107%. For the same compound, the viability at 28.5 h, 10 µM in the data set “in vitro [1]” stood at 95.5%.

As to `CC(C)C(=O)N1CCC[C@H]1Cn1nc(-c2cccs2)ccc1=O` [CBK285469], the % viability in the data set on HeLa came out at 96.1%. Also, the viability at 28.5 h, 10 µM in “in vitro [1]” amounted to 97.8%.

For `O=C(NCCc1ccccc1)[C@H]1C=CCN1C(=O)c1ccccc1F` [CBK285471], the % viability with HeLa is 104%. Moreover, in the data set “in vitro [1]”, the viability at 28.5 h, 10 µM came out at 94%.

As to `C[C@H](Cn1c(=O)oc2ccccc21)NC(=O)CC1c2ccccc2Oc2ccccc21` [CBK286201], the % viability in the data set on HeLa was determined as 96.8%. In the data set “in vitro [1]”, the viability at 28.5 h, 10 µM came to 90.1%.

On to `O=C(CN1C(=O)[C@@H]2CCCN2C(=O)c2ccccc21)NCc1ccccc1` [CBK286318], for which, in the data set on HeLa, the % viability is 89.5%. Further, the viability at 28.5 h, 10 µM in the data set “in vitro [1]” came to 98.6%.

For `O=C(CN1C(=O)[C@H]2CCCN2C(=O)c2ccccc21)Nc1ccccc1-c1ccccc1` [CBK286321], the % viability in the data set on HeLa worked out at 94.1%. Also, the viability at 28.5 h, 10 µM in the data set “in vitro [1]” came to 93.9%.

For `O=C(CN1C(=O)[C@@H]2CCCN2C(=O)c2ccccc21)NCCc1ccccc1` [CBK286402], the % viability in the data set on HeLa was 90%. Besides, the viability at 28.5 h, 10 µM in the data set “in vitro [1]” was 87.1%.

Turning to `CC(C)(CC(=O)O)CC(=O)Nc1cccc(CCc2ccncc2)c1` [CBK286989], in the data set on HeLa, the % viability was 84.8%. In the data set “in vitro [1]”, the viability at 28.5 h, 10 µM was 99.3%.

For the compound `CCCCn1nc(C)c(-c2cc(C(=O)O)[nH]n2)c1C` [CBK287047], in the data set with HeLa, the % viability is 84.5%. Besides, the viability at 28.5 h, 10 µM in the data set “in vitro [1]” amounted to 95%.

For the compound `O=C(O)CCCCCN1C(=O)CC(c2ccc(Cl)cc2)CC1=O` [CBK287245], in the data set with HeLa, the % viability was found to be 102%. Further, the viability at 28.5 h, 10 µM in the data set “in vitro [1]” is 104%.

With `CC1Cc2ccccc2N1c1ncnc2nc[nH]c12` (stereo not shown) [CBK287388], in the data set with HeLa, the % viability came to 66.9%. In addition, in the data set “in vitro [1]”, the viability at 28.5 h, 10 µM is 66.8%.

As for `O=c1[nH]nc2ccc(S(=O)(=O)N3CCCC3)cn12` [CBK288033], the % viability with HeLa was 91.1%. In addition, the viability at 28.5 h, 10 µM in “in vitro [1]” was determined as 80.5%.

On to `O=C(c1cnc2[nH][nH]c(=O)c2c1)c1ccccc1O` [CBK288082], for which the % viability with HeLa turned out to be 110%. Besides, the viability at 28.5 h, 10 µM in the data set “in vitro [1]” was 90.5%.

As for `Nc1nc(=O)c2cnc3ccc(Cl)cc3c2s1` [CBK288175], the % viability in the data set on HeLa worked out at 79.6%. Further, in the data set “in vitro [1]”, the viability at 28.5 h, 10 µM worked out at 84.6%.

Consider `CNC(=S)N1CCN(c2nsc3ccccc23)CC1` [CBK288515], for which, in the data set with HeLa, the % viability turned out to be 83.2%. Moreover, the viability at 28.5 h, 10 µM in the data set “in vitro [1]” was 83.5%.

For `COc1cc2[nH]c(=S)n(C3CCCC3)c(=O)c2cc1OC` [CBK288518], in the data set on HeLa, the % viability turned out to be 93.5%. Besides, in the data set “in vitro [1]”, the viability at 28.5 h, 10 µM was 84.9%.

In the case of `CC(=O)Nc1ccc(S(N)(=O)=O)c2ccccc12` [CBK288522], the % viability in the data set with HeLa is 94%. For the same compound, in the data set “in vitro [1]”, the viability at 28.5 h, 10 µM was determined as 83.5%.

Regarding `O=C(NCCCN1CCCCC1)/C(=N\O)c1ccccc1` [CBK288524], the % viability in the data set with HeLa was found to be 85.9%. Also, in the data set “in vitro [1]”, the viability at 28.5 h, 10 µM amounted to 97.7%.

With `CCCNC(=O)NS(=O)(=O)c1ccc(C)cc1` [CBK288527], the % viability with HeLa was determined as 90.2%. In addition, the viability at 28.5 h, 10 µM in the data set “in vitro [1]” is 100%.

With `COC(=O)[C@@H]1Cc2c([nH]c3ccccc23)[C@H]2C[C@H](NCCO)C[C@@H](c3ccccc3)N21` [CBK289167], in the data set on HeLa, the % viability was 97.8%. The viability at 28.5 h, 10 µM in the data set “in vitro [1]” is 94.8%.

As for `Cn1nnc2cc(NC(=O)N3CC4(C)CC3CC(C)(C)C4)ccc21` (stereo not shown) [CBK304389], in the data set on HeLa, the % viability was determined as 95.3%. The viability at 28.5 h, 10 µM in the data set “in vitro [1]” stood at 94.6%.

`CCOc1ccc(-c2ccnc(NC[C@@H]3CCCO3)n2)cc1C(=O)O` [CBK306568]: the % viability in the data set on HeLa is 89.2%. Further, the viability at 28.5 h, 10 µM in “in vitro [1]” was 86.5%.

On to `CC[C@H](CO)NC(=O)c1coc(COc2ccc3sc(C)nc3c2)n1` [CBK306602], for which the % viability in the data set with HeLa was determined as 93.5%. Besides, the viability at 28.5 h, 10 µM in the data set “in vitro [1]” was 85.3%.

In general, IC50 refers to the midpoint of a concentration-inhibition curve. Higher therefore signals weaker potency. Take `CCCCc1ccc(Nc2csc(N)n2)cc1` [c11e]: the midpoint of inhibition in data set [2], the IC50, lay at 0.956 µM. Also, the MIC in data set [3] is 3.11 µM (≈ 0.768 µg/mL). Moreover, in “in vitro [4]”, the viability at 28.5 h, 0.000416667 µM is 97.7%; the viability at 28.5 h, 0.00125 µM was found to be 95.9%; the viability at 28.5 h, 0.00375 µM turned out to be 96.4%; the viability at 28.5 h, 0.0123333 µM was 104%. For the same compound, in “in vitro [4]”, the viability at 28.5 h, 0.037 µM was found to be 92.8%; the viability at 28.5 h, 0.111 µM came out at 97.8%; the viability at 28.5 h, 0.333 µM worked out at 99.6%; the viability at 28.5 h, 1 µM worked out at 102%. In addition, in the data set “in vitro [4]”, the viability at 28.5 h, 3 µM came out at 92.4%; the viability at 28.5 h, 10 µM came out at 92.8%; the viability at 28.5 h, 30 µM is 69.9%.

For the compound `CN(C(=O)c1ccc(Cl)c(Cl)c1)[C@H]1CCC[C@H]1N1CCCC1` [c12e], in data set [2], half-maximal inhibition (IC50) was put at 1.02 µM. This compound also returned an MIC in data set [3] of 1.7 µM (≈ 0.581 µg/mL). In the data set “in vitro [4]”, the viability at 28.5 h, 0.000416667 µM was 93%; the viability at 28.5 h, 0.00125 µM was 89.3%; the viability at 28.5 h, 0.00375 µM is 91.4%; the viability at 28.5 h, 0.0123333 µM turned out to be 89%. Further, in the data set “in vitro [4]”, the viability at 28.5 h, 0.037 µM amounted to 88.9%; the viability at 28.5 h, 0.111 µM is 92.8%; the viability at 28.5 h, 0.333 µM was 88.7%; the viability at 28.5 h, 1 µM is 89%. Moreover, in “in vitro [4]”, the viability at 28.5 h, 3 µM came to 85.2%; the viability at 28.5 h, 10 µM amounted to 92.7%; the viability at 28.5 h, 30 µM is 82.8%.

In data set [2], `O=C(CC1SC(Nc2ccc(O)cc2)=NC1=O)c1ccccc1` (stereo not shown) [c13e] showed an IC50 of 1.03 µM. Further, the MIC in data set [3] turned out to be 4.56 µM (≈ 1.49 µg/mL). For the same compound, in the data set “in vitro [4]”, the viability at 28.5 h, 0.000416667 µM was 95%; the viability at 28.5 h, 0.00125 µM was determined as 92.7%; the viability at 28.5 h, 0.00375 µM was found to be 87.7%; the viability at 28.5 h, 0.0123333 µM is 95%. Moreover, in “in vitro [4]”, the viability at 28.5 h, 0.037 µM amounted to 87.6%; the viability at 28.5 h, 0.111 µM was found to be 92%; the viability at 28.5 h, 0.333 µM was 86.2%; the viability at 28.5 h, 1 µM was 88.7%. Moreover, in the data set “in vitro [4]”, the viability at 28.5 h, 3 µM stood at 85.2%; the viability at 28.5 h, 10 µM is 85.6%; the viability at 28.5 h, 30 µM was found to be 83.8%.

Turning to `CCC(c1ccc(F)cc1)N(C)C(=O)Cn1cc(C(=O)NC2CCCCC2)ccc1=O` (stereo not shown) [c44e], the IC50 in data set [2] is 5.83 µM. In addition, in “in vitro [4]”, the viability at 28.5 h, 0.000416667 µM was 93.4%; the viability at 28.5 h, 0.00125 µM stood at 91.8%; the viability at 28.5 h, 0.00375 µM came to 93.8%; the viability at 28.5 h, 0.0123333 µM was determined as 89.2%. In the data set “in vitro [4]”, the viability at 28.5 h, 0.037 µM amounted to 90.8%; the viability at 28.5 h, 0.111 µM stood at 86.7%; the viability at 28.5 h, 0.333 µM turned out to be 87.7%; the viability at 28.5 h, 1 µM worked out at 85.4%. Besides, in the data set “in vitro [4]”, the viability at 28.5 h, 3 µM worked out at 87.9%; the viability at 28.5 h, 10 µM amounted to 83.2%; the viability at 28.5 h, 30 µM turned out to be 87.2%.
